What all share (format): cell-based
Test [1] deals with NALM-6 human leukemia cells. Nature of the test: MTT cytotoxicity assay, NALM-6. The conditions noted are these: Homo sapiens, 24–36 hours. On the procedure: (§1) The cytotoxicity assay of various compounds against human tumor cell lines was performed using the MTT (3-[4,5-dimethylthiazol-2-yl]-2,5-diphenyl tetrazolium bromide) assay (Boehringer Mannheim Corp., Indianapolis, Ind.). Briefly, exponentially growing tumor cells were seeded into a 96-well plate at a density of 2.5×10^4 cells/well and incubated for 36 hours at 37° C. prior to drug exposure. On the day of treatment, culture medium was carefully aspirated from the wells and replaced with fresh medium containing the quinazoline compounds at concentrations ranging from 0.1 to 250 μM. Triplicate wells were used for each treatment.
(§2) Human cell lines were obtained from American Type Culture Collection (Rockville, Md.) and maintained as a continuous cell line in Dulbecco's modified Eagles' medium supplemented with 10% fetal bovine serum and antibiotics. Cells used in this study include human leukemia cells (NALM-6 and MOLT-3), human breast cancer cells ([…]), human prostate cancer cells (PC3), and human brain tumor cells (U373).
(§3) The cells were incubated with the various compounds for 24–36 hours at 37° C. in a humidified 5% CO2 atmosphere. To each well, 10 μl of MTT (0.5 mg/ml final concentration) was added and the plates were incubated at 37° C. for 4 hours to allow MTT to form formazan crystals by reacting with metabolically active cells. The formazan crystals were solubilized overnight at 37° C. in a solution containing 10% SDS in 0.01 M HCl. The absorbance of each well was measured in a microplate reader (Labsystems) at 540 nm and a reference wavelength of 690 nm. To translate the OD 540 values into the number of live cells in each well, the OD 540 values were compared to those on standard OD 540—versus—cell number curves generated for each cell line. The percent survival was calculated using the formula:
(§4) [formula] The IC50 values were calculated by non-linear regression analysis. Detection of Apoptosis
In general terms: Tetrazolium dyes change colour on reduction, which living cells bring about.

For test [2], the system named is MOLT-3 human leukemia cells. As to the kind of experiment: MTT cytotoxicity assay, MOLT-3. Conditions: Homo sapiens, 24–36 hours. As for the experimental part:
as §1, §2, §3, §4

In test [3] the test system is BT20 human breast cancer cells. Nature of the test: MTT cytotoxicity assay, BT20. The conditions noted are these: 24–36 hours. On the procedure:
as §1, §2, §3, §4

The mark [4] stands for this setting: NALM-6, Table 1, bromo substituted.
The mark [5] stands for this setting: MOLT-3, Table 1, bromo substituted.
[6] abbreviates: Homo sapiens, BT-20, Table 1, bromo substituted.

As to `COc1cc2ncnc(Nc3cccc(Br)c3)c2cc1OC` [HI-P79, 4-(3′-Bromophenyl)-amino-6,7-dimethoxyquinazoline], the IC50 (usually the point on the concentration scale where inhibition reaches its midpoint) worked out at 142 µM in test [1] (setting [4]), 195 µM in test [2] (setting [5]) and 202 µM in test [3] (setting [6]).
For `COc1cc2ncnc(Nc3cccc(Cl)c3)c2cc1OC` [HI-P87, 4-(3′-Chlorophenyl)-amino-6,7-dimethoxyquinazoline], the IC50 in test [1] (NALM-6, Table 2, chloro substituted) was 95.9 µM; in test [2] (MOLT-3, Table 2, chloro substituted), over 105 µM; in test [3] (Homo sapiens, BT-20, Table 2, chloro substituted), over 250 µM.
Consider `COc1cc2ncnc(Nc3ccc(Br)cc3C(=O)O)c2cc1OC` [HI-P88, 4-(4′-Bromo-2′-caboxylphenyl)-amino-6,7-dimethoxyquinazoline], for which the IC50 in test [1] (setting [4]), in test [2] (setting [5]) and in test [3] (setting [6]) was over 250 µM throughout.
In the case of `COc1cc2ncnc(Nc3ccc(C)c(Br)c3)c2cc1OC` [HI-P111, 4-(3′-Bromo-4′-methylphenyl)-amino-6,7-dimethoxyquinazoline], the IC50 in test [1] (setting [4]) is 201 µM; in test [2] (setting [5]), over 250 µM; in test [3] (setting [6]) it was over 250 µM.
For the compound `COc1cc2ncnc(Nc3ccc(O)c(Br)c3)c2cc1OC` [HI-P154, 4-(3′-Bromo-4′-hydroxylphenyl)-amino-6,7-dimethoxyquinazoline], the IC50 in test [1] (setting [4]) was 12.5 µM; in test [2] (setting [5]) it was 9.1 µM; in test [3] (setting [6]) it was over 250 µM; in test [3] (Table 4, OH substituted), over 250 µM.
As for `COc1cc2ncnc(Nc3ccc4c(c3)Cc3cc(Br)ccc3-4)c2cc1OC` [HI-P160, 4-[(7′-Bromofluorene)-2′]-amino-6,7-dimethoxyquinazoline], the results for the IC50 in test [1] (setting [4]), in test [2] (setting [5]) and in test [3] (setting [6]) were 135 µM, 241 µM and 25.5 µM, respectively.
For `COc1cc2ncnc(C(=O)c3cccc(Br)c3)c2cc1OC` [HI-P164, 4-(3′-Bromobenzoyl)-6,7-dimethoxyquinazoline], the IC50 in test [1] (setting [4]) is over 250 µM; in test [2] (setting [5]), over 250 µM; in test [3] (setting [6]), 39.2 µM.
In the case of `COc1cc2ncnc(Nc3ccc(C)c(Br)c3Br)c2cc1OC` [HI-P210, 4-(2′,3′-Dibromo-4′-methylphenyl)-amino-6,7-dimethoxyquinazoline], the IC50 in test [1] (setting [4]), in test [2] (setting [5]) and in test [3] (setting [6]) was over 250 µM throughout.
With `COc1cc2ncnc(Nc3cc(Br)c(C)cc3Br)c2cc1OC` [HI-P211, 4-(2′,5′-Dibromo-4′-methylphenyl)-amino-6,7-dimethoxyquinazoline], the IC50 in test [1] (setting [4]), in test [2] (setting [5]) and in test [3] (setting [6]) was over 250 µM in each case.
Take `COc1cc2ncnc(Nc3cc(Br)c(C)c(Br)c3)c2cc1OC` [HI-P212, 4-(3′,5′-Dibromo-4′-methylphenyl)-amino-6,7-dimethoxyquinazoline]: the IC50 in test [1] (setting [4]) is 52.7 µM; in test [2] (setting [5]) it was 54.5 µM; in test [3] (setting [6]), over 250 µM.
`COc1cc2ncnc(Nc3c(Br)cc(Br)cc3Br)c2cc1OC` [HI-P222, 4-(2′, 4′, 6′-Tribromophenyl)amino-6,7-dimethoxyquinazoline]: the IC50 in test [1] (setting [4]) was 34 µM; in test [2] (setting [5]), 48.3 µM; in test [3] (setting [6]), over 250 µM.
The corresponding values for `COc1cc2ncnc(Nc3ccc(C)cc3)c2cc1OC` [HI-P234] are over 250 µM, over 250 µM and over 250 µM.
The corresponding values for `COc1cc2ncnc(Nc3c(Br)cc(C)cc3Br)c2cc1OC` [HI-P241, 4-(2′,6′-Dibromo-4′-methylphenyl)-amino-6,7-dimethoxyquinazoline] are over 250 µM, over 250 µM and over 250 µM.
Regarding `COc1cc2ncnc(Nc3ccccc3)c2cc1OC` [HI-P258], the IC50 in test [1] (setting [4]), in test [2] (setting [5]) and in test [3] (setting [6]) was over 250 µM throughout.
In the case of `COc1cc2ncnc(Nc3ccc(Br)cc3)c2cc1OC` [HI-P260, 4-(4′-Bromophenyl)-amino-6,7-dimethoxyquinazoline], the results for the IC50 in test [1] (setting [4]), in test [2] (setting [5]) and in test [3] (setting [6]) were 32.4 µM, 51.3 µM and 82.1 µM, respectively.

Source of the values: US7038049B2, “Haloanilino quinazolines and therapeutic use thereof” (Parker Hughes Institute, priority 1999, dated 2006).
